We go through one compound from ChEMBL document CHEMBL4028827, “Discovery of indazole aldosterone synthase (CYP11B2) inhibitors as potential treatments for hypertension” (Bioorg Med Chem Lett, 2017).

In test [1] the target is T1, Cytochrome P450 11B2, mitochondrial (Homo sapiens, UniProt P19099).
T1 sequence (P19099 whole entry): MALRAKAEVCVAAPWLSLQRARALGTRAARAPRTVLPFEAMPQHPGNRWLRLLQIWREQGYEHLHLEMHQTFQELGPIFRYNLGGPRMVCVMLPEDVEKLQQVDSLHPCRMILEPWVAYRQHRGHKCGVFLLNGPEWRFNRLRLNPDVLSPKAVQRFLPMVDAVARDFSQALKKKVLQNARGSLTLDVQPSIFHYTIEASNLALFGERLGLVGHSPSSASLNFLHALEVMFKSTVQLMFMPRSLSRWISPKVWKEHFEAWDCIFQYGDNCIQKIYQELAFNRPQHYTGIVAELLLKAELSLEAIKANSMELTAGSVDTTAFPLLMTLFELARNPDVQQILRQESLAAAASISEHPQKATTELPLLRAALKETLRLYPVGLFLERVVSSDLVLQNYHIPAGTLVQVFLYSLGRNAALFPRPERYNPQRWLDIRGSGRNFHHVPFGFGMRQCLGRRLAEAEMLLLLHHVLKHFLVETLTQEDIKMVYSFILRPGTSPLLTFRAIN
Briefly: Inhibition of human CYP11B2-CLE9 expressed in Chinese hamster V79 cells using 11-deoxycorticosterone as substrate preincubated for 1 hr followed by substrate addition measured for 3 hrs by HTRF assay. In kind it is cell-based. On the technique in general: TR-FRET usually uses a lanthanide donor and a delayed reading to cut background.

Test [2] deals with T2, Cytochrome P450 11B2, mitochondrial (Rattus norvegicus, UniProt P30099).
T2 sequence (P30099 whole entry): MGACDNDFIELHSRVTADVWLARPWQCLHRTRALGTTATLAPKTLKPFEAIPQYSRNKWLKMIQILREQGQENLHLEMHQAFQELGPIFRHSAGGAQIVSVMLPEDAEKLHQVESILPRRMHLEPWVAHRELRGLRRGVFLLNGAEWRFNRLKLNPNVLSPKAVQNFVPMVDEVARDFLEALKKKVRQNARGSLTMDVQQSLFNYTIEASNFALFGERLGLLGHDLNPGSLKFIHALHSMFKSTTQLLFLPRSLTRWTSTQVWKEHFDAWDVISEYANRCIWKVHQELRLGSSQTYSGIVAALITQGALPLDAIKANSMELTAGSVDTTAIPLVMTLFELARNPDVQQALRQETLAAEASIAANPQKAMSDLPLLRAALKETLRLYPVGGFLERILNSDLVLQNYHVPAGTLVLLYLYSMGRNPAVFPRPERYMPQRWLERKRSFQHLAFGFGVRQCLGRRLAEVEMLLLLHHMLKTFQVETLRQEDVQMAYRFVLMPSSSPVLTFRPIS
Briefly: Inhibition of rat CYP11B2-1F4 expressed in Chinese hamster V79 cells using 11-deoxycorticosterone as substrate preincubated for 1 hr followed by substrate addition measured for 3 hrs by HTRF assay. In kind it is cell-based.

The nature of test [3]: Selectivity ratio of IC50 for hepatic CYP2C9 (unknown origin) to IC50 for human CYP11B2-CLE9 expressed in Chinese hamster V79 cells.

As to `CC(C)(O)c1cncc(-n2ncc3c(C(F)(F)F)cccc32)c1`, the IC50 (commonly the concentration needed to halve the response being measured) in test [1] is 2.2 to 2.24 nM; in test [2] it was 2.2 nM. The “Ratio IC50” value in test [3] is on record as more than 4000.
